pIC50: −log10 of the molar value.
Tests used:
[1] = biological target: Glutaminyl-peptide cyclotransferase (Homo sapiens, UniProt Q16769); experiment: Biochemical QPCT and QPCTL Activity Assay
[2] = biological target: Glutaminyl-peptide cyclotransferase-like protein (Homo sapiens, UniProt Q9NXS2); experiment: Biochemical QPCT and QPCTL Activity Assay
Glutaminyl-peptide cyclotransferase-like protein, sequence (Q9NXS2 whole entry): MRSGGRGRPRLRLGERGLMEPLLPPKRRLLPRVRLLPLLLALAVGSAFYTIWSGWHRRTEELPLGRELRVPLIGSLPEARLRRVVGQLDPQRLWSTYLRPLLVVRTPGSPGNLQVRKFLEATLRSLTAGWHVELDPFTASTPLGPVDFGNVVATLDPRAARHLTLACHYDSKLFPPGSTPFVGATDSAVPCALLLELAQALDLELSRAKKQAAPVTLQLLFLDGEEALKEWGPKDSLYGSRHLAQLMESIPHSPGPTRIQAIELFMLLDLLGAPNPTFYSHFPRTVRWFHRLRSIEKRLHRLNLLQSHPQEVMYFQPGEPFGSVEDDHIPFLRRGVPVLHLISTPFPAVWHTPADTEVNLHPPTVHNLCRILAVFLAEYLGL

Glutaminyl-peptide cyclotransferase, sequence (Q16769 whole entry): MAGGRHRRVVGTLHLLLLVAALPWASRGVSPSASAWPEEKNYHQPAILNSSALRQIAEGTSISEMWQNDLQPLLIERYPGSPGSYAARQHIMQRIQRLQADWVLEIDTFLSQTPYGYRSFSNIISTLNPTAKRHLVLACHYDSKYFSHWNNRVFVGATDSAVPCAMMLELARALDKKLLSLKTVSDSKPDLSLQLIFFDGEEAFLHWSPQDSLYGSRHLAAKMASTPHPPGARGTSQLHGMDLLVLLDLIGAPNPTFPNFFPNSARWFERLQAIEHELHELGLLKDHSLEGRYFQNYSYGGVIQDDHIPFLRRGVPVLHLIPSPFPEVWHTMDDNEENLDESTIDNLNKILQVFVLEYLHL

SMILES	pIC50 [1]	pIC50 [2]
Cn1cnnc1C1(F)CCN(c2c(C#N)ccnc2-c2ccc(F)nc2)CC1 [US20240059675, Example 1]	8.40	
Cn1cnnc1C1(F)CCN(c2c(C#N)ccnc2-c2cnc(F)c(OCC3CC3)c2)CC1 [US20240059675, Example 26]		9.00
Cn1cnnc1C1(F)CCN(c2c(C#N)ccnc2-c2cnc3nn(C(C)(C)C(F)(F)F)cc3c2)CC1 [US20240059675, Example 29]	8.52	8.70

Reference: BindingDB's records for patent US20240059675 (Boehringer Ingelheim International, 2024)
